Results: US20170137426A1, “HETEROCYCLIC COMPOUNDS AS AXL INHIBITORS” (CHANGZHOU JIEKAI PHARMATECH CO., LTD., priority 2014, published 2017)

biological target: T1, human AXL (Homo sapiens, UniProt P30530); assay: AXL enzymatic assay (LanthaScreen TR-FRET); type: biochemical; conditions: recombinant his-tagged catalytic domain (aa 473-894), 18 μM ATP (around Km), 200 nM Poly GT substrate, 1 h reaction
T1 construct: his-tagged catalytic domain (amino acids 473-894) from insect cells; His tag; purchased Invitrogen PV3971; host or cells: insect cells
T1 sequence (P30530 473-894): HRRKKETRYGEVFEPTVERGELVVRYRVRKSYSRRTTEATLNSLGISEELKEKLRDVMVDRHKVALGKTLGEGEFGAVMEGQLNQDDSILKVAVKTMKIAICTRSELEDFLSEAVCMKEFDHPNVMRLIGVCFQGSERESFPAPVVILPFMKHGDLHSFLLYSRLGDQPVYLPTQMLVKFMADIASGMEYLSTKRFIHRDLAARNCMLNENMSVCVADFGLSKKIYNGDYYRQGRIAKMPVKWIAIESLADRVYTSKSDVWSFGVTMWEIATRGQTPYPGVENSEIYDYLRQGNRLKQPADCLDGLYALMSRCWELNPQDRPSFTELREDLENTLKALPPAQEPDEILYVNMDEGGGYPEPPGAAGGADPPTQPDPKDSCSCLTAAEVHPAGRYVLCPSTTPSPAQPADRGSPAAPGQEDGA
Procedure: Example 3: AXL Enzymatic Assay
Compounds were tested in a LanthaScreen™ time-resolved fluorescence energy transfer (TR-FRET) enzymatic assay from Invitrogen. The assay used human AXL (Invitrogen, Cat. PV3971) recombinantly expressed his-tagged catalytic domain (amino acids 473-894) from insect cells. The substrate was fluorescein-labeled Poly GT (Invitrogen, Cat. PV3610). Test compounds were prepared and diluted in DMSO in 3-fold serial dilutions to 100× of the final testing concentrations. The compounds were then further diluted to 4× by the kinase reaction buffer (Invitrogen, Cat. PV3189). The enzymatic reaction for compound testing was performed in a white 384-well polypropylene plate (Packard, Cat. 6005214) with a total reaction volume of 10 μl containing 200 ng/ml AXL, 200 nM substrate, and 18 μM ATP that is around its Km. The assay started with loading 2.5 μl of AXL diluted in kinase reaction buffer to wells, followed by addition of equal volume of 4× compounds for 15-min incubation at the room temperature for pre-treatment. The enzymatic reaction was initiated by addition of 5 μl of mixture of the substrate and ATP prepared in kinase reaction buffer. After one hour reaction, 10 μl mixture of EDTA (final 10 mM) and terbium-labeled anti-PY20 antibody (final 2 nM) (Invitrogen, Cat. PV3552) prepared in TR-FRET antibody dilution buffer (Invitrogen, Cat. PV3574) was added to stop the enzymatic reaction and produce TR-FRET signals. After 30 minutes of incubation at room temperature, the plate was read in Tecan Infinite F200 Pro with the following settings: Excitation 340 nm (30)/Emission1 495 nm (10)/Emission2 520 nm (25). The TR-FRET values were dimensionless numbers that were calculated as the ratio of the acceptor ([…]) signal to the donor (Terbium) signal. Percent of control was calculated as the percentage of compound-treated vs 1% DMSO vehicle-treated. The dose-response curves were generated and the IC50s were calculated by nonlinear sigmoid curve fitting using GraphPad Prism.

| IC50 [µM] | SMILES |
| --- | --- |
| 0.2 to 0.4 | CC(C)Oc1cccnc1-n1ccc2cnc(Nc3ccc4c(c3)CCC(N3CCCC3)CC4)nc21 (stereo not drawn) [Compound 13, 7-(3-isopropoxypyridin-2-yl)-N-(7-(pyrrolidin-1-yl)-6,7,8,9-tetrahydro-5H-benzo[7]annulen-2-yl)-7H-pyrrolo[2,3-d]pyrimidin-2-amine] |
| 0.05 to 0.2 | COc1ccc(-n2ccc3cnc(Nc4ccc5c(c4)CCC(N4CCCC4)CC5)nc32)c(OC(C)C)c1 (stereo not drawn) [Compound 9, 7-(2-isopropoxy-4-methoxyphenyl)-N-(7-(pyrrolidin-1-yl)-6,7,8,9-tetrahydro-5H-benzo[7]annulen-2-yl)-7H-pyrrolo[2,3-d]pyrimidin-2-amine] |
| > 1 | c1ccc(-c2ccc(-n3ccc4cnc(Nc5ccc6c(c5)CCC(N5CCCC5)CC6)nc43)cc2)cc1 (stereo not drawn) [Compound 8, 7-([1,1′-biphenyl]-4-yl)-N-(7-(pyrrolidin-1-yl)-6,7,8,9-tetrahydro-5H-benzo[7]annulen-2-yl)-7H-pyrrolo[2,3-d]pyrimidin-2-amine] |
| 0.025 to 0.05 | CC(C)Oc1ccccc1-n1ccc2cnc(Nc3ccc4c(c3)CCC(N3CCCC3)CC4)nc21 (stereo not drawn) [Compound 1, 7-(2-isopropoxyphenyl)-N-(7-(pyrrolidin-1-yl)-6,7,8,9-tetrahydro-5H-benzo[7]annulen-2-yl)-7H-pyrrolo[2,3-d]pyrimidin-2-amine] |
| 0.7 to 0.8 | c1ccc(Oc2ccccc2-n2ccc3cnc(Nc4ccc5c(c4)CCC(N4CCCC4)CC5)nc32)cc1 (stereo not drawn) [Compound 5, 7-(2-phenoxyphenyl)-N-(7-(pyrrolidin-1-yl)-6,7,8,9-tetrahydro-5H-benzo[7]annulen-2-yl)-7H-pyrrolo[2,3-d]pyrimidin-2-amine] |
| 0.025 to 0.05 | Cc1ccccc1-c1ccc(-n2ccc3cnc(Nc4ccc5c(c4)CCC(N4CCCC4)CC5)nc32)cc1 (stereo not drawn) [Compound 12, 7-(2′-methyl-[1,1′-biphenyl]-4-yl)-N-(7-(pyrrolidin-1-yl)-6,7,8,9-tetrahydro-5H-benzo[7]annulen-2-yl)-7H-pyrrolo[2,3-d]pyrimidin-2-amine] |
| 0.2 to 0.4 | CC(C)Oc1ccccc1-n1ccc2cnc(Nc3ccc4c(c3)CCN(C)CC4)nc21 [Compound 15, N-(7-(2-isopropoxyphenyl)-7H-pyrrolo[2,3-d]pyrimidin-2-yl)-3-methyl-2,3,4,5-tetrahydro-1H-benzo[d]azepin-7-amine] |

The remaining lines, values behind:

| SMILES | IC50 [µM] |
| --- | --- |
| CC(C)Oc1cc(-c2ccccc2)ccc1-n1ccc2cnc(Nc3ccc4c(c3)CCC(N3CCCC3)CC4)nc21 (stereo not drawn) [Compound 14, 7-(3-isopropoxy-[1,1′-biphenyl]-4-yl)-N-(7-(pyrrolidin-1-yl)-6,7,8,9-tetrahydro-5H-benzo[7]annulen-2-yl)-7H-pyrrolo[2,3-d]pyrimidin-2-amine] | 0.2 to 0.4 |
| c1ccc(-n2ccc3cnc(Nc4ccc5c(c4)CCC(N4CCCC4)CC5)nc32)c(OC2CCCCC2)c1 (stereo not drawn) [Compound 4, 7-(2-(cyclohexyloxy)phenyl)-N-(7-(pyrrolidin-1-yl)-6,7,8,9-tetrahydro-5H-benzo[7]annulen-2-yl)-7H-pyrrolo[2,3-d]pyrimidin-2-amine] | 0.2 to 0.4 |
| CC(C)NC(=O)c1ccccc1-n1ccc2cnc(Nc3ccc4c(c3)CCC(N3CCCC3)CC4)nc21 (stereo not drawn) [Compound 11, N-isopropyl-2-(2-((7-(pyrrolidin-1-yl)-6,7,8,9-tetrahydro-5H-benzo[7]annulen-2-yl)amino)-7H-pyrrolo[2,3-d]pyrimidin-7-yl)benzamide] | > 1 |
| CC(C)Oc1cccc(-n2ccc3cnc(Nc4ccc5c(c4)CCC(N4CCCC4)CC5)nc32)c1 (stereo not drawn) [Compound 3, 7-(3-isopropoxyphenyl)-N-(7-(pyrrolidin-1-yl)-6,7,8,9-tetrahydro-5H-benzo[7]annulen-2-yl)-7H-pyrrolo[2,3-d]pyrimidin-2-amine] | 0.05 to 0.2 |
| CC(C)Oc1cc(Cl)ccc1-n1ccc2cnc(Nc3ccc4c(c3)CCC(N3CCCC3)CC4)nc21 (stereo not drawn) [Compound 10, 7-(4-chloro-2-isopropoxyphenyl)-N-(7-(pyrrolidin-1-yl)-6,7,8,9-tetrahydro-5H-benzo[7]annulen-2-yl)-7H-pyrrolo[2,3-d]pyrimidin-2-amine] | < 0.025 |
| CC(C)Oc1ccc(-n2ccc3cnc(Nc4ccc5c(c4)CCC(N4CCCC4)CC5)nc32)cc1 (stereo not drawn) [Compound 7, 7-(4-isopropoxyphenyl)-N-(7-(pyrrolidin-1-yl)-6,7,8,9-tetrahydro-5H-benzo[7]annulen-2-yl)-7H-pyrrolo[2,3-d]pyrimidin-2-amine] | 0.025 to 0.05 |
| Cc1ccccc1Oc1ccccc1-n1ccc2cnc(Nc3ccc4c(c3)CCC(N3CCCC3)CC4)nc21 (stereo not drawn) [Compound 6, N-(7-(pyrrolidin-1-yl)-6,7,8,9-tetrahydro-5H-benzo[7]annulen-2-yl)-7-(2-(o-tolyloxy)phenyl)-7H-pyrrolo[2,3-d]pyrimidin-2-amine] | < 0.025 |
| CC(C)Oc1ccccc1-n1ccc2cnc(Nc3cnn(C4CCN(C)CC4)c3)nc21 [Compound 2, 7-(2-isopropoxyphenyl)-N-(1-(1-methylpiperidin-4-yl)-1H-pyrazol-4-yl)-7H-pyrrolo[2,3-d]pyrimidin-2-amine] | 0.7 to 0.8 |
